Measured values reported in patent publication US11529324B2, “Use of Kv11.1 channel inhibitors for treatment of pulmonary hypertension” (Georgetown University, priority 2019, dated 2022).

Key:
PAH-induced SD rats [1] = assay: Dofetilide treatment of SU5416/hypoxia PAH-induced and healthy SD rats, H&E lung histology and morphometric analysis (Example 5); assay type: in vivo, rat
Method: (§1) Male SD and Fischer rats were purchased from Charles River Laboratories International, Inc., (Wilmington, Mass., USA). To induce PAH, rats were subcutaneously injected with 20 mg/kg body weight SU5416 (inhibitor of vascular endothelial growth factor (VEGF) receptor Flk/1-KDR; MedChemExpress, Monmouth Junction, N.J., USA) and maintained in hypoxia^28-30. For hypoxia, animals were placed in a chamber (30″ w×20″ d×20″ h) regulated by an OxyCycler Oxygen Profile Controller (Model A84XOV; BioSpherix, Redfield, N.Y., USA) set to maintain 10% O2 with an influx of N2 gas, located in the animal care facility at the Georgetown University Medical Center. […] Animals were fed normal rat chow.
In a first experiment to determine the effects of a Kv11.1 inhibitor (dofetilide), SD rats were divided into 4 groups that were treated with (1) DMSO, (2) dofetilide, (3) DMSO+SU5416/Hypoxia, and (4) dofetilide+SU5416/Hypoxia, respectively (n=4 for each group). Dofetilide (10 mg/kg body weight) was dissolved in DMSO and injected intraperitoneally before the injection of SU5416. For histological examination, lung tissues were fixed in 10% formalin and embedded in paraffin. The Georgetown University Animal Care and Use Committee approved all animal experiments, and the investigation conformed to the National Institutes of Health Guide for the Care and Use of Laboratory Animals.
Paraffin-embedded tissues were cut and mounted on glass slides. Tissue sections were subjected to hematoxylin and eosin (H&E) stain and immunohistochemistry using anti-smooth muscle actin (anti-SMA) antibody (Abcam, Cambridge, UK) and Kv11.1 antibody (Alomone Labs, Jerusalem, Israel).
Lung slides were analyzed for pulmonary artery wall thickness. 30 vessels were analyzed per animal in each group, and four values of external and internal diameters for thickness were measured for each vessel. The wall thickness was calculated as difference of external and internal diameters by using Fiji software.
Means±SEM were calculated and then comparisons between two groups were analyzed using a two-tailed Student's t test, while comparisons between three or more groups were analyzed using ANOVA with a Student-Newman-Keuls post-hoc test. P<0.05 was considered to be significant.
To determine if pharmacological inhibition of Kv11.1 channels would affect PAH progression, healthy and PAH-induced SD rats were treated with Kv11.1 channel-specific blocker dofetilide. Lung tissues from four groups of SD rats (four rats in each group) were examined with H&E staining. […] PAH-induced rats in group (3) had increased intimal endothelial cell proliferation, increased SPAMWT, and reduced pulmonary arterial lumen diameter compared to control rats (FIGS. 6A and 6B).

PAH-induced SD rats [2] = assay: Lower doses of dofetilide in SU5416/hypoxia PAH-induced and healthy SD rats, H&E lung histology (Example 6); assay type: in vivo, rat
Method: as §1
(§2) In a second experiment to determine the effects of dofetilide, SD rats are divided into 4 groups that are treated with (1) DMSO, (2) dofetilide, (3) DMSO+SU5416/Hypoxia, and (4) dofetilide+SU5416/Hypoxia, respectively (n=4 for each group). Dofetilide (1000 μg/kg body weight) is dissolved in DMSO and injected intraperitoneally before the injection of SU5416. For histological examination, lung tissues are fixed in 10% formalin and embedded in paraffin.
as §2, with “third” for “second”, “(100” for “(1000”
as §2, with “fourth” for “second”, “(10” for “(1000”
To examine further if pharmacological inhibition of Kv11.1 channels would affect PAH progression, healthy and PAH-induced SD rats are treated with Kv11.1 channel-specific blocker dofetilide using lower doses (1 mg/kg, 0.1 mg/kg, 0.01 mg/kg, or 0.001 mg/kg) than was used in Example 5. Lung tissues from four groups of SD rats (four rats in each group) are examined with H&E staining. […] PAH-induced rats in Group (3) have increased intimal endothelial cell proliferation, increased SPAMWT, and reduced pulmonary arterial lumen diameter compared to control rats.

[3] = PAH-induced (SU5416/hypoxia) SD rats, dofetilide 10 mg/kg i.p. before SU5416, group (4) compared with PAH-induced group (3)
[4] = PAH-induced SD rats, dofetilide lower doses (1, 0.1, 0.01 or 0.001 mg/kg) i.p., Group (4) compared with Group (3)

Question: How did the “pulmonary arterial lumen diameter” value (PAH-induced SD rats [1]; [3]) turn out when `CN(CCOc1ccc(NS(C)(=O)=O)cc1)CCc1ccc(NS(C)(=O)=O)cc1` [dofetilide] was run?
Answer: increased

Question: And the “small pulmonary arterial media wall thickness (SPAMWT)” value (PAH-induced SD rats [1]; [3])?
Answer: reduced

Question: What about the “PAH-induced changes in SPAMWT” value (PAH-induced SD rats [1]; dofetilide 10 mg/kg i.p., SPAMWT of PAH-induced dofetilide-treated group (4) statistically similar to control group (2)) of the same compound?
Answer: completely eliminated

Question: And the “small pulmonary arterial media wall thickness (SPAMWT) in control rats” value (PAH-induced SD rats [1]; healthy SD rats, dofetilide 10 mg/kg i.p. group (2) versus DMSO group (1), data not shown)?
Answer: no statistical differences

Question: And the “pulmonary arterial lumen diameter” value (PAH-induced SD rats [2]; [4])?
Answer: increased

Question: And the “small pulmonary arterial media wall thickness (SPAMWT)” value (PAH-induced SD rats [2]; [4])?
Answer: reduced

Question: And the “PAH-induced changes in SPAMWT” value (PAH-induced SD rats [2]; dofetilide lower doses (1, 0.1, 0.01 or 0.001 mg/kg), SPAMWT of Group (4) statistically similar to control Group (2))?
Answer: completely eliminates

Question: What about the “small pulmonary arterial media wall thickness (SPAMWT) in control rats” value (PAH-induced SD rats [2]; healthy SD rats, dofetilide lower doses Group (2) versus DMSO Group (1)) of the same compound?
Answer: no statistical differences
